Laboratory results reported in US20110165173A1, “THERAPEUTIC AGENT AND DETECTION REAGENT FOR ARTERIOSCLEROTIC DISEASE WHICH TARGETS FOR SALUSIN” (PROTEINEXPRESS CO., LTD., priority 2007, published 2011).

Tests used:
[1] = system: apoE-deficient mice; assay: Arteriosclerotic lesions of aorta in apoE-deficient mice under continuous subcutaneous administration (oil red O staining); format: in vivo; conditions: 0.6 nmol/kg/h continuous subcutaneous
Description: Effects of continuous administration of salusin-α and salusin-β on arteriosclerosis were examined with the use of apoE-deficient mice as arteriosclerosis animal models. Herein, antiserum effects of salusin-α or salusin-β were also examined. In addition to examination of arteriosclerotic lesions, foaming of macrophages, which is important for formation of arteriosclerosis primary lesions, was focused on and cholesterol ester accumulation caused by oxidized LDL was assayed. Expression analysis was carried out for scavenger receptors (CD36 and SR-A) capable of recognizing oxidized LDL, an intracellular cholesterol esterification enzyme (acyl-CoA) (cholesterol acyltransferase 1 (ACAT1)), and ATP-binding cassette transporter A1 (ABCA1), ABCG1, and SR-BI, which are involved in the mechanism of extracellular transportation of excessive intracellular free cholesterol (cholesterol efflux).
The above animal experiments were carried out in accordance with the experimental practice guidelines established by Showa University (Japan). All the apoE-deficient mice used for this study were purchased from the Jackson Laboratory (Bar Harbor, Me., U.S.A.).
13-week-old male apoE-deficient mice (72 mice) were divided into the following 6 groups: (i) physiological salt saline (control); (ii) salusin-α (0.6 nmol/kg/h); (iii) salusin-β (0.6 nmol/kg/h); (iv) salusin-α (0.6 nmol/kg/h)+anti-salusin-α serum (1.4 μg/kg/h); (v) salusin-β (0.6 nmol/kg/h)+anti-salusin-β serum (1.4 μg/kg/h); and (vi) anti-salusin-β serum (1.4 μg/kg/h). The mice were subjected to continuous subcutaneous administration with the use of an osmotic mini-pump for 4 to 8 weeks. The osmotic mini-pump and the solution contained therein were changed every week.
Mice ingesting a normal diet were subjected to experiments. The following parameters were assayed.
Each collected aorta was cut in the longitudinal direction, followed by oil red O staining for examination of the surface area of each atherosclerosis lesion with lipid pigmentation. Adobe Photoshop (Adobe System Inc., San Jose, Calif., U.S.A.) was used for identification of arteriosclerotic lesions, followed by analysis using NIH Scion Image (Scion Corp., Frederick, Md., U.S.A.) for quantification of the surface area of each lesion. In addition, cross-sections of the vicinity of the aorta (immediately below the aortic valve) were prepared, followed by oil red O staining for detailed analysis of arteriosclerotic lesions.

[2] = system: scavenger receptor class A (SR-A) activity; assay: Scavenger receptor class A (SR-A) activity: [125I]AcLDL association and degradation assays; format: cell-based, human; conditions: 0.6 nM; 5 to 10 μg/mL [125I]AcLDL, 18 hours
Text: A scavenger receptor is a lipoprotein receptor expressed on macrophages. It recognizes modified LDL such as oxidized LDL or AcLDL, leading to endocytosis. A ligand of such receptor that has been incorporated into a cell is degraded in the lysosome. Such scavenger receptor plays a very important role on formation of foam cells from macrophages. Known examples of a scavenger receptor include a scavenger receptor class A (SR-A), CD36, lectin-like oxidized LDL receptor-1 (LOX-1), and CD68 [Greaves D R et al., J Lipid Res. 2005; 46: 11-20.]. Oxidized LDL can bind to the four types of the above scavenger receptors. However, the only scavenger receptor to which AcLDL binds is SR-A. In this experiment, AcLDL, which is a representative example of modified LDL, was used as a ligand and the activity of SR-A serving an exclusive scavenger receptor capable of recognizing AcLDL was assayed (FIG. 9).
Peripheral blood human monocytes (4×10^6cells/6 cm dish) were cultured for 7 days in an RPMI-1640 medium (2 mL) containing 10% human serum so as to differentiate into macrophages. At such time, 0.6 nM salusin-α or salusin-β was added during culture to examine effects of salusin-α and salusin-β on the endocytosis activity (SR-A activity) of [^125I]AcLDL. On Day 7, the medium was changed. An adequate amount of medium was added to [^125I]AcLDL (5 to 10 μg/mL) and 0.6 nM salusin-α or salusin-β so as to result in a total amount of 2 mL. The cells were further cultured for 18 hours.
The cells were washed once with PBS containing 3% BSA and then washed twice with PBS. 0.1 N NaOH (1 mL) was added thereto and the resultant was allowed to stand at room temperature for 30 minutes. The cells were recovered into a polystyrene tube (12×75 mm, Fisher Scientific Company), further washed with 0.1 N NaOH (1 mL), and recovered again. The total amount of the cell extraction solution was assayed using a y counter. The protein concentration of a portion thereof was determined by the BCA method (Pierce). The cell association (μg/mg cell protein) of [^125I]AcLDL was calculated by dividing the radioactivity (cpm) of the cell extraction solution by the specific activity (cpm/μg) of [^125I]AcLDL and the cell protein amount (mg) per dish [Miyazaki A et al., J Biol Chem. 1994; 269: 5264-5269].
[^125I]AcLDL incorporated by macrophages via scavenger receptors are degraded in the lysosome. […]
A portion (750 μL) was collected from each culture supernatant into a polystyrene tube (12×75 mm, Fisher Scientific Company). […] In addition, the peptide from [^125I]AcLDL that had been processed by cells was exclusively detected in the trichloroacetic acid soluble fraction. […]

salusin-α: peptide (SEQ ID NO: 1) comprising 28 amino acid residues, generated by processing from preprosalusin (SGALPPAPAAPRPALRAQRAGPAGPGAK; listed as Homo sapiens)
arteriosclerotic lesion surface area ([1]; eight weeks): reduced to less than half | plaque formation ([1]; eight weeks): obvious plaque formation was not observed | [125I]AcLDL association assay vs control cells [2]: no significant changes | [125I]AcLDL degradation assay vs control cells [2]: no significant changes

salusin-β: peptide (SEQ ID NO: 3) comprising 20 amino acid residues, generated by processing from preprosalusin (AIFIFIRWLLKLGHHGRAPP; listed as Homo sapiens) [reference compound]
proximal aorta cross-sections, oil red O staining, compared with control group ([1]; four weeks): formation of atheroma stained red with oil red O and thickening of the blood vessel wall were observed | mean arteriosclerotic lesion surface area of the aortic arch relative to control group ([1]; four weeks, P<0.005): approximately 2.5 times | [125I]AcLDL association assay vs control cells [2]: no significant changes | [125I]AcLDL degradation assay vs control cells [2]: no significant changes
